Measured values from US20200253929A1, “TREATMENT OF EPILEPSY” (priority 2017, published 2020).

Experiments:
[1] = tested on: PTZ-induced epileptiform brain activity in zebrafish larvae; experiment: Zebrafish PTZ seizure model, local field potential recordings (electrophysiology); type: in vivo, Danio rerio; details: 10 min recording, vs VHC+PTZ; for reduction of percentage of larvae with PTZ-induced epileptiform activity: MTC and optimal incubation time (2 h azaspirofuran, 18 h pseurotins), 15 min PTZ; for cumulative duration of epileptiform events / number of epileptiform events: MTC and optimal incubation time
Text: To determine whether azaspirofuran A and pseurotin A2 can ameliorate the PTZ-induced hyperexcitable state of the brain that is characterized by epileptiform discharges, local field potential (LFP) recordings were non-invasively measured from the midbrain (optic tectum) of zebrafish larvae [Zdebik et al. (2013) PLoS One 8, e79765; Britton et al. (2016) In Electroencephalography (EEG): An Introductory Text and Atlas of Normal and Abnormal Findings in Adults, Children, and Infants (St. Louis and Frey, Eds.), Chicago]. To that end larvae were treated with either VHC or test compound (MTC and optimal incubation time were used) followed by a 15 min during exposure to PTZ or VHC prior to the electrophysiology measurements (FIG. 4). […] Thus, both compounds not only ameliorate PTZ-induced seizures but are likely to do so by lowering the PTZ-induced hyperexcitable state of the brain.
Experimental procedure was described before [Zdebik et al. (2013) PLoS One 8, e79765; Sourbron et al. (2017) Front. Pharmac. 8, 191; Copmans et al. (2018) Neurochem. Int. 112, 124-133.]. Non-invasive LFP recordings were measured from the midbrain (optic tectum) of 7 dpf zebrafish larvae pre-incubated with VHC only, PTZ only, compound and VHC, or compound and PTZ. Larvae were incubated for approximately 2 or 18 hours with VHC (1% DMSO) or compound (1% DMSO) in a 100 μL volume. After incubation, 100 μL of VHC (embryo medium) or 40 mM PTZ (dissolved in embryo medium, 20 mM working concentration) was added to the well for 15 min prior to recording. These steps occurred at 28° C., while further manipulation and electrophysiological recordings occurred at room temperature (21° C.). The larva was embedded in 2% low melting point agarose (Invitrogen) and the signal electrode (an electrode inside a soda-glass pipet (1412227, Hilgenberg) pulled with a DMZ Universal Puller (Zeitz, Germany), diameter±20 microns, containing artificial cerebrospinal fluid (ACSF: 124 mM NaCl, 10 mM glucose, 2 mM KCl, 2 mM MgSO4, 2 mM CaCl2, 1.25 mM KH2PO4, and 26 mM NaHCO3, 300-310 mOsmols)) was positioned on the skin covering the optic tectum. A differential extracellular amplifier (DAGAN, USA) amplified the voltage difference between the signal (measured by the signal electrode) and the reference electrode. The differential signal was band pass filtered at 0.3-300 Hz and digitized at 2 kHz via a PCI-6251 interface (National instruments, UK) using WinEDR (John Dempster, University of Strathclyde, UK). A grounding electrode grounded the electrical system. All electrodes were connected with ACSF. Each recording lasted 600 seconds. Manual analysis was completed by quantification of the number, cumulative duration, and mean duration of epileptiform-like events with Clampfit 10.2 software (Molecular Devices Corporation, USA). An electrical discharge was considered epileptiform if it was a poly-spiking event comprising at least 3 spikes with a minimum amplitude of three times the baseline amplitude and a duration of at least 100 milliseconds. Data are expressed as mean±SD for the number and cumulative duration of epileptiform events and as mean±SEM for the mean duration of events.

Nav1.5 channel = target: T1, Nav1.5 channel (Homo sapiens, UniProt Q14524); experiment: Cardiotoxicity fluorescence-based assay, Nav1.5 channel; type: cell-based; details: HEK293 cells
T1 construct: expressed in transfected cells; host or cells: HEK293
T1 sequence (Q14524 whole entry): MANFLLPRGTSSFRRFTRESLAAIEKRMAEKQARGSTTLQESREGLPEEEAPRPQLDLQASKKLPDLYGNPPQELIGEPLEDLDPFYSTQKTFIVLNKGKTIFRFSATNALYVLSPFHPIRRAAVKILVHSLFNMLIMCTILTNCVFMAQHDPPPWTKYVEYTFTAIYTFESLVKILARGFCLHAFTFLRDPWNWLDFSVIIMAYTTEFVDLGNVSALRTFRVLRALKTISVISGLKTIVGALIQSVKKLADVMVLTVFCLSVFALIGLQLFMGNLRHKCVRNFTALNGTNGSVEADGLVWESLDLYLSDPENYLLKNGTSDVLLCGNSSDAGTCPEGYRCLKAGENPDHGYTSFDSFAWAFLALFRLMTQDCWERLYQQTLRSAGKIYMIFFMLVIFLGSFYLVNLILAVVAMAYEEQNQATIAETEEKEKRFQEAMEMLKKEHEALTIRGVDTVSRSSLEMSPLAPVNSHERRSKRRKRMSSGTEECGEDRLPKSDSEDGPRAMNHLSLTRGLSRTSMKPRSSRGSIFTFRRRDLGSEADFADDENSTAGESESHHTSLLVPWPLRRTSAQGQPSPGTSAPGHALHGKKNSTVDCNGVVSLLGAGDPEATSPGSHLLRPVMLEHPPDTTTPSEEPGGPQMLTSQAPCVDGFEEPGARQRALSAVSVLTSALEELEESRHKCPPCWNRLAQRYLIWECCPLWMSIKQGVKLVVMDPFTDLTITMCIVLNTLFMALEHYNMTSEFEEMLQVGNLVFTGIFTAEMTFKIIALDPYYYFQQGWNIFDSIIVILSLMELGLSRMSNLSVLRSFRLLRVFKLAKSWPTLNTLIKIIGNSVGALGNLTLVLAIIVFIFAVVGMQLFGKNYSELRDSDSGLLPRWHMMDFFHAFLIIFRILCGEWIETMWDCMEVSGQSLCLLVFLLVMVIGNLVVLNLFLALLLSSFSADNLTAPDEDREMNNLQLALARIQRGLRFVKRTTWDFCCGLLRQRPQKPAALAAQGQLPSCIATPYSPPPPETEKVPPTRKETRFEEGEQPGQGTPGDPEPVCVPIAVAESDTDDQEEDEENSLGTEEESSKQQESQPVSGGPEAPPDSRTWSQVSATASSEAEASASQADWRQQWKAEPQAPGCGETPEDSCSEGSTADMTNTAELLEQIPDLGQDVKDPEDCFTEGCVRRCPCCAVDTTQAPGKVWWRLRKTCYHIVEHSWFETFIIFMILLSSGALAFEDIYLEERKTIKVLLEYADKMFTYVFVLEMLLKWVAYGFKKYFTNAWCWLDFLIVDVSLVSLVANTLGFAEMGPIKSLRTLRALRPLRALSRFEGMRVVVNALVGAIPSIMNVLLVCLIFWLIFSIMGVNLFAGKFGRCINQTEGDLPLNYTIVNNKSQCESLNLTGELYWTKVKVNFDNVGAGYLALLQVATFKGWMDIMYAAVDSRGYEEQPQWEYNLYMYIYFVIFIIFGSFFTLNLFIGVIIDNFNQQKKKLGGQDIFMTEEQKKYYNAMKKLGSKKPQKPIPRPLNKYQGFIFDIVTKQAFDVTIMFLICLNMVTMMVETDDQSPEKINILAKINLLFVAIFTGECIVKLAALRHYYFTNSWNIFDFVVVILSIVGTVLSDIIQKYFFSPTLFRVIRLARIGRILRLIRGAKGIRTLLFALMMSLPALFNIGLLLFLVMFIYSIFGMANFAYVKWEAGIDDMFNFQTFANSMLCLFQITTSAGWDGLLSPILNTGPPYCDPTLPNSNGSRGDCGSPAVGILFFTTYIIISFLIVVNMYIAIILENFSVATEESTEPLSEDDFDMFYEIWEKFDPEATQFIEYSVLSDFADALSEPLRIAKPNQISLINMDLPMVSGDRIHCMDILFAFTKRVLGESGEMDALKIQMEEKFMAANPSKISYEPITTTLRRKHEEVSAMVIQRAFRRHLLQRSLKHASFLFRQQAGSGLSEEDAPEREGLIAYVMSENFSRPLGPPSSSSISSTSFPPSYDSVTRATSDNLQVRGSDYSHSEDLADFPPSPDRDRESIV
Procedure: Fluorescence-based assays were performed using HEK293 cell lines that stably express the Nav1.5-channel, Cav1.2-channel or hERG K+-channel, using FMP Red Dye (Molecular Devices), calcium-sensitive fluorescent dye Fluo-4 (Invitrogen) and FIuxOR™ reagent (Invitrogen), respectively, and a FLIPR Tetra High-Throughput Cellular Screening System (Molecular Devices), according to manufacturer's protocols (Molecular Devices). Tetrodotoxin (TTX), israpidine and nicarpidine, and astemizole and haloperidol were used as standard sodium channel, calcium channel, and hERG channel blockers. Data were analyzed using Genedata Screener.

[2] = Parallel artificial membrane permeability assay (PAMPA); type: in vitro ADME; details: for Permeability: 10 μM, 5 h, RT
Procedure: The Gentest Pre-coated PAMPA Plate System (Corning) was used to perform the permeability assays. The 96 well filter plate, pre-coated with lipids, was used as the permeation acceptor and a matching 96 well receiver plate was used as the permeation donor. Compound solutions were prepared by diluting 10 mM DMSO stock solutions in PBS with a final concentration at 10 μM. The compound solutions were added to the wells (300 μL/well) of the receiver plate and PBS was added to the wells (200 μL/well) of the pre-coated filter plate. The filter plate was then coupled with the receiver plate and the plate assembly was incubated at RT without agitation for 5 h. Next, the plates were separated and 50 μL solution from each well of both the filter plate and the receiver plate was transferred to a vial with 150 μL acetonitrile and centrifuged at 13300 rpm for 10 min at 4° C. The supernatant was diluted in a solution water/acetonitrile (50/50). The final concentration of compounds in both donor wells and acceptor wells was analyzed by LC-MS/MS. Permeability of the compounds was calculated using the following equation:
Permeability (cm/s): Pe={−ln[1−CA(t)/Ceq]}/[A*(1/VD+1/VA)*t]}
A=filter area (0.3 cm2), VD=donor well volume (0.3 mL), VA=acceptor well volume (0.2 mL), t=incubation time (s), CA(t)=compound concentration in acceptor well at time t, CD(t)=compound concentration in donor well at time t, and Ceq=[CD(t)*VD+CA(t)*VA]/(VD+VA)]

## CCc1ccc(C2=C(C)C(=O)C3(O2)C(=O)NC(OC)(C(=O)c2ccccc2)C3O)o1 (centres unmarked) [azaspirofuran A]
[1]
  reduction of percentage of larvae with PTZ-induced epileptiform activity: ~60%
  cumulative duration of epileptiform events: shorter cumulative duration of events
  number of epileptiform events: significantly less epileptiform events
Nav1.5 channel
  Cardiotoxicity Nav1.5 channel, effect: Low
  IC50: 39.1 µM
[2]
  Permeability, rating: High
  Permeability: 18.64 ×10⁻⁶ cm/s

## CC/C=C\[C@H](O)[C@H](O)C1=C(C)C(=O)[C@]2(O1)C(=O)N[C@](OC)(C(=O)c1ccccc1)[C@H]2O [pseurotin A2]
[1]
  reduction of percentage of larvae with PTZ-induced epileptiform activity: 33%
  cumulative duration of epileptiform events: shorter cumulative duration of events
  number of epileptiform events: significantly less epileptiform events
Nav1.5 channel
  Cardiotoxicity Nav1.5 channel, effect: No effect
  IC50: > 50 µM
[2]
  Permeability, rating: Low
  Permeability: 0.05 ×10⁻⁶ cm/s
